Results reported in ChEMBL document CHEMBL4715777, “Synthesis and topoisomerases inhibitory activity of heteroaromatic chalcones” (Bioorg Med Chem, 2016).
Structures can show the parent of a compound that is named as a salt.

Key:
[1] = target: T1, DNA topoisomerase 1 (Homo sapiens) (UniProt P11387); assay: (§1) Inhibition of recombinant human DNA topoisomerase 1 expressed in baculovirus expression system assessed as decrease in relaxation of supercoiled pBR322 plasmid DNA at 20 uM using supercoiled pBR322 plasmid DNA as substrate incubated for 30 mins by ethidium bromide staining-based UV imaging analysis relative to control
T1 sequence (whole entry): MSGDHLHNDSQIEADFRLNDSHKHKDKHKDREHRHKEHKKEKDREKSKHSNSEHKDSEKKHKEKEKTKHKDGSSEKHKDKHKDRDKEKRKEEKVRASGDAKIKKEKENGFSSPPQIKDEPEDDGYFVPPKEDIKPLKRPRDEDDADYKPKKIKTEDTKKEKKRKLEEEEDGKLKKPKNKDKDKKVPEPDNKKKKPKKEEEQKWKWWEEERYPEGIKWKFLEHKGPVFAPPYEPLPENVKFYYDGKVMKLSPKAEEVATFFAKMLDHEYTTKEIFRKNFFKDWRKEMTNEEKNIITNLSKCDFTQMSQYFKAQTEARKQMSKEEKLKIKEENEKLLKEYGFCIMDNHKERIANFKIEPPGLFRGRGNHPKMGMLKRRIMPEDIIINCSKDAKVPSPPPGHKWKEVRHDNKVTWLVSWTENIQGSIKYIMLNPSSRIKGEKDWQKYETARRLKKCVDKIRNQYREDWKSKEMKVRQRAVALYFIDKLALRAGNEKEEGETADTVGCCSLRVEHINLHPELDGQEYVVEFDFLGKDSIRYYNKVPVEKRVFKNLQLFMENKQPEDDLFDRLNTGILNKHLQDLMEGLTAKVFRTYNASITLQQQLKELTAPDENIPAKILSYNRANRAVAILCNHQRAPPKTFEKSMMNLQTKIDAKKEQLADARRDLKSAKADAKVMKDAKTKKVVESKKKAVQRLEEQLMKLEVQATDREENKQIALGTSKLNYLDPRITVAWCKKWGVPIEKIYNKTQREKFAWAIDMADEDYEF

[2] = target: T1, DNA topoisomerase 1 (Homo sapiens); assay: as §1, with “100” for “20”
MDA-MB-468 = assay: Cytotoxicity against human MDA-MB-468 cells assessed as cell growth inhibition measured after 2 days by cell counting kit-8 assay; type: functional, cell-based; settings: MDA-MB-468, 48 h
T47D = assay: Cytotoxicity against human T47D cells assessed as cell growth inhibition measured after 2 days by cell counting kit-8 assay; type: functional, cell-based; settings: 48 h
[3] = target: DNA topoisomerase 2-alpha (Homo sapiens) (UniProt P11388); assay: Inhibition of human DNA topoisomerase 2alpha assessed as decrease in relaxation of supercoiled pBR322 plasmid DNA at 100 uM using supercoiled pBR322 plasmid DNA as substrate incubated for 30 mins in presence of ATP by ethidium bromide staining-based UV imaging analysis relative to control
Chain of DNA topoisomerase 2-alpha (Homo sapiens) (P11388 whole entry): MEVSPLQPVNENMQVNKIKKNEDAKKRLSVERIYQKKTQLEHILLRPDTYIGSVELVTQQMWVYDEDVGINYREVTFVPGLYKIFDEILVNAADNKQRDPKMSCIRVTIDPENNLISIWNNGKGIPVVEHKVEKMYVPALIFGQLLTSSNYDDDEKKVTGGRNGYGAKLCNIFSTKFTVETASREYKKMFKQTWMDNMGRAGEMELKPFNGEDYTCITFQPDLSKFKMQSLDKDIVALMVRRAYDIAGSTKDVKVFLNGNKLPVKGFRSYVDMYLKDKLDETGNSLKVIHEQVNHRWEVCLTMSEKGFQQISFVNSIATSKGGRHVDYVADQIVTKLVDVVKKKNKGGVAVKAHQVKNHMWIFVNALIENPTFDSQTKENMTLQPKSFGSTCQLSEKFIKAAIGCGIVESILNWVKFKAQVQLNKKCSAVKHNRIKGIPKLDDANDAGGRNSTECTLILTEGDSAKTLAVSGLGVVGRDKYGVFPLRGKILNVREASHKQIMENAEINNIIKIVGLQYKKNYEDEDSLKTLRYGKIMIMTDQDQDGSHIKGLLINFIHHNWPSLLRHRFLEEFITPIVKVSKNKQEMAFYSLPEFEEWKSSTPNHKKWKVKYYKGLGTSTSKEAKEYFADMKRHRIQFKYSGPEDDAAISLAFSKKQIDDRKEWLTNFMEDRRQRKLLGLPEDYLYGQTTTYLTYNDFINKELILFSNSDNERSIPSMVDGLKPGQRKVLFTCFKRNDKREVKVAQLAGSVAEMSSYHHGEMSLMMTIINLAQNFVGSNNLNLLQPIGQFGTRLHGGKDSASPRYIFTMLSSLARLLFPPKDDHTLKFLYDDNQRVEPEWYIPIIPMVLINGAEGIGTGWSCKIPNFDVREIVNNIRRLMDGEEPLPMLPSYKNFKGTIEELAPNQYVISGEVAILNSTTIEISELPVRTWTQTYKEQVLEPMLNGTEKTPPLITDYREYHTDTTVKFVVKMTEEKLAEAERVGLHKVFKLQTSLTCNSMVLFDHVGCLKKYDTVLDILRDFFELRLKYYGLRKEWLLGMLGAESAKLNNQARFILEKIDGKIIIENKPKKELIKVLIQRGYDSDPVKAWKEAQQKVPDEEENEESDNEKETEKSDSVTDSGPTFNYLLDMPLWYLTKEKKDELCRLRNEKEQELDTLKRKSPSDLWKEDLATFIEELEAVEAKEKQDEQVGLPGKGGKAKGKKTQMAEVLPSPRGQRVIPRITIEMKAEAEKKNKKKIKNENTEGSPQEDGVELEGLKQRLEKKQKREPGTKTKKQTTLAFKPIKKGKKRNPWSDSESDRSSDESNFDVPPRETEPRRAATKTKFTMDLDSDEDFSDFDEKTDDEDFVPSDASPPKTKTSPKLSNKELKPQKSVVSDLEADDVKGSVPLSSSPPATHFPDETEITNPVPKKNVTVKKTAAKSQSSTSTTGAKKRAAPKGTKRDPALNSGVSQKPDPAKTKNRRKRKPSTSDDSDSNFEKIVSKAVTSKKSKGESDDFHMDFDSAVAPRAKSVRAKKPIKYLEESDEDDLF

MDA-MB-231 = assay: Cytotoxicity against human MDA-MB-231 cells assessed as cell growth inhibition measured after 2 days by cell counting kit-8 assay; type: functional, cell-based; settings: MDA-MB-231, 48 h
[4] = target: DNA topoisomerase 2-alpha (Homo sapiens) (UniProt P11388); assay: Inhibition of human DNA topoisomerase 2alpha assessed as decrease in relaxation of supercoiled pBR322 plasmid DNA at 20 uM using supercoiled pBR322 plasmid DNA as substrate incubated for 30 mins in presence of ATP by ethidium bromide staining-based UV imaging analysis relative to control

Compound	inhibition [1]	inhibition [2]	IC50 (MDA-MB-468)	IC50 (T47D)	inhibition [3]	IC50 (MDA-MB-231)	inhibition [4]
O=C(/C=C/c1ccco1)c1ccc(OCC2CO2)cc1 (centres undefined)	0%	36.8%	48.9 µM	17.7 µM	6.6%	47.1 µM	
O=C(/C=C/c1cccs1)c1cccc(OCC2CS2)c1 (centres undefined)		0%	6.98 µM	10.6 µM	3.7%	19.9 µM	
O=C(/C=C/c1ccco1)c1ccccc1OCC1CO1 (centres undefined)	24.2%	36.8%	48.3 µM	19.4 µM	82.3%	28.7 µM	0%
CC[C@@]1(O)C(=O)OCc2c1cc1n(c2=O)Cc2cc3ccccc3nc2-1 [CAMPTOTHECIN]			1.71 µM	3.67 µM	< 30%	8.83 µM	
O=C(/C=C/c1ccco1)c1ccccc1OCC1CS1 (centres undefined)	6.4%	61.2%	8.26 µM	6.61 µM	95.4%	32.2 µM	30.6%
O=C(/C=C/c1ccoc1)c1ccc(OCC2CS2)cc1 (centres undefined)		0%	5.3 µM	12.3 µM	0%	19.3 µM	
O=C(/C=C/c1ccco1)c1cccc(OCC2CS2)c1 (centres undefined)	1.3%	75.4%	7.23 µM	10.4 µM	90.4%	28.9 µM	29.8%
O=C(/C=C/c1ccco1)c1ccc(OCC2CS2)cc1 (centres undefined)	0%	63.8%	4.32 µM	9.44 µM	94.5%	18 µM	24.7%
O=C(/C=C/c1ccc(OCC(O)CCl)cc1)c1ccco1 (centres undefined)		1.8%	9.53 µM	> 50 µM	0%	> 50 µM	
COc1cccc2c1C(=O)c1c(O)c3c(c(O)c1C2=O)C[C@@](O)(C(=O)CO)C[C@@H]3O[C@H]1C[C@H](N)[C@H](O)[C@H](C)O1 [DOXORUBICIN HYDROCHLORIDE]			2.15 µM	2.18 µM		3.6 µM	
O=C(/C=C/c1ccsc1)c1ccc(OCC2CS2)cc1 (centres undefined)	0%	100%	23.8 µM	9.32 µM	0%	50 µM	
O=C(/C=C/c1ccc(OCC2CO2)cc1)c1ccco1 (centres undefined)		0%	17.3 µM	11.2 µM	0%	22.2 µM	
O=C(/C=C/c1ccc(OCC2CO2)cc1)c1cccs1 (centres undefined)	15.6%	34.1%	6.3 µM	10.6 µM	0%	13.9 µM	
O=C(/C=C/c1ccc(OCC(O)CCl)cc1)c1cccs1 (centres undefined)		4.3%	7.75 µM	13 µM	3.7%	30.3 µM	
O=C(/C=C/c1cccs1)c1ccc(OCC2CO2)cc1 (centres undefined)		0%	17.2 µM	17.8 µM	0.6%	28.3 µM	
O=C(/C=C/c1ccc(OCC2CS2)cc1)c1cccs1 (centres undefined)		5.1%	6.14 µM	3.83 µM	0%	17.3 µM	
O=C(/C=C/c1cccs1)c1cccc(OCC2CO2)c1 (centres undefined)		2.7%	16.3 µM	14.6 µM	3.9%	15.4 µM	
O=C(/C=C/c1ccoc1)c1ccc(OCC2CO2)cc1 (centres undefined)		5.6%	16.5 µM	20.6 µM	0.3%	26.2 µM	
O=C(/C=C/c1cccs1)c1ccccc1OCC1CS1 (centres undefined)		0.4%	4.35 µM	7.01 µM	0.4%	17.9 µM	
O=C(/C=C/c1ccc(OCC2CS2)cc1)c1ccco1 (centres undefined)		3.3%	8.35 µM	10.6 µM	0%	24.1 µM	
COc1cc([C@@H]2c3cc4c(cc3[C@@H](O[C@@H]3O[C@@H]5CO[C@@H](C)O[C@H]5[C@H](O)[C@H]3O)[C@H]3COC(=O)[C@H]23)OCO4)cc(OC)c1O [ETOPOSIDE]		< 30%	0.86 µM	1.96 µM		9.13 µM	
O=C(/C=C/c1cccs1)c1ccc(OCC2CS2)cc1 (centres undefined)		14.5%	5.27 µM	11.1 µM	0%	16.7 µM	
O=C(/C=C/c1ccco1)c1cccc(OCC2CO2)c1 (centres undefined)		28.5%	37.3 µM	22.7 µM	67.6%	27.8 µM	0.3%
O=C(/C=C/c1ccsc1)c1ccc(OCC2CO2)cc1 (centres undefined)	0%	46.3%	10.8 µM	10.6 µM	2.7%	11.1 µM	
O=C(/C=C/c1cccs1)c1ccccc1OCC1CO1 (centres undefined)		11.1%	7.71 µM	17.7 µM	0.7%	17.9 µM	
